Measured values taken from the supplement of paper PMC10307832.

Key:
Test in all cases: relative viability (nuclei count vs DMSO), 5 days (fraction); higher = more cells survive
Metformin + Lapatinib = compound: CN(C)C(=N)NC(=N)N [Metformin] + CS(=O)(=O)CCNCc1ccc(-c2ccc3ncnc(Nc4ccc(OCc5cccc(F)c5)c(Cl)c4)c3c2)o1 [Lapatinib] (partner 2 µM)
Outline: (§1)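 Five library-drug doses in √10 steps were combined with a fixed anchor-drug dose, or a single drug was given alone, by pin tool to lung cancer cell lines in 1536-well plates the day after seeding. Nuclei were stained and counted after 5 days. Relative viability is the nuclei count in treated wells over that in vehicle wells, taken as the median of duplicate plates.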

Apatinib + Luminespib = compound: N#CC1(c2ccc(NC(=O)c3cccnc3NCc3ccncc3)cc2)CCCC1 [Apatinib] + CCNC(=O)c1noc(-c2cc(C(C)C)c(O)cc2O)c1-c1ccc(CN2CCOCC2)cc1 [Luminespib] (partner 0.01 µM)
Outline: as §1

Metformin + Navitoclax = compound: CN(C)C(=N)NC(=N)N [Metformin] + CC1(C)CCC(c2ccc(Cl)cc2)=C(CN2CCN(c3ccc(C(=O)NS(=O)(=O)c4ccc(N[C@H](CCN5CCOCC5)CSc5ccccc5)c(S(=O)(=O)C(F)(F)F)c4)cc3)CC2)C1 [Navitoclax] (partner 0.5 µM)
Outline: as §1

Apatinib + Dasatinib = compound: N#CC1(c2ccc(NC(=O)c3cccnc3NCc3ccncc3)cc2)CCCC1 [Apatinib] + Cc1nc(Nc2ncc(C(=O)Nc3c(C)cccc3Cl)s2)cc(N2CCN(CCO)CC2)n1 [Dasatinib] (partner 0.075 µM)
Outline: as §1

| Cell Line | relative viability (Metformin + Lapatinib; first compound 10 µM) | relative viability (Metformin + Lapatinib; first compound 31.62 µM) | relative viability (Metformin + Lapatinib; first compound 316.23 µM) | relative viability (Metformin + Lapatinib; first compound 1000 µM) | relative viability (Apatinib + Luminespib; first compound 0.08 µM) | relative viability (Apatinib + Luminespib; first compound 0.253 µM) | relative viability (Apatinib + Luminespib; first compound 0.8 µM) | relative viability (Apatinib + Luminespib; first compound 2.53 µM) | relative viability (Apatinib + Luminespib; first compound 8 µM) | relative viability (Metformin + Navitoclax; first compound 10 µM) | relative viability (Metformin + Navitoclax; first compound 31.62 µM) | relative viability (Metformin + Navitoclax; first compound 316.23 µM) | relative viability (Metformin + Navitoclax; first compound 1000 µM) | relative viability (Apatinib + Dasatinib; first compound 0.08 µM) | relative viability (Apatinib + Dasatinib; first compound 0.253 µM) | relative viability (Apatinib + Dasatinib; first compound 0.8 µM) | relative viability (Apatinib + Dasatinib; first compound 2.53 µM) | relative viability (Apatinib + Dasatinib; first compound 8 µM) | relative viability (Metformin + Lapatinib; first compound 100 µM) | relative viability (Metformin + Navitoclax; first compound 100 µM) |
| --- | --- | --- | --- | --- | --- | --- | --- | --- | --- | --- | --- | --- | --- | --- | --- | --- | --- | --- | --- | --- |
| NCI-H2228 | 1.46 | 1.25 | 0.974 | 1.24 | 0.126 | 0.122 | 0.129 | 0.13 | 0.126 | 1.02 | 1.04 | 0.815 | 1.05 | 0.538 | 0.533 | 0.518 | 0.387 | 0.295 |  |  |
| PC-14 | 0.432 | 0.438 | 0.36 | 0.372 | 0.121 | 0.15 |  | 0.167 | 0.144 | 0.968 | 0.958 | 1 | 0.989 | 0.284 | 0.238 | 0.203 | 0.208 | 0.178 | 0.37 | 0.998 |
| RERF-LC-KJ | 0.685 | 0.777 | 0.775 | 0.915 | 1.11 | 1.35 | 1.07 | 1.22 | 1.02 | 1.08 | 1.15 | 0.833 | 0.745 | 0.859 | 0.897 | 0.754 | 0.615 | 0.52 | 0.777 | 0.752 |
| NCI-H2085 | 0.716 | 0.805 | 0.725 | 0.868 | 0.396 | 0.527 | 0.429 | 0.421 | 0.361 | 1.08 | 1.12 | 1.07 | 1.11 | 0.229 | 0.229 | 0.231 | 0.243 | 0.215 | 0.801 | 1.05 |
| LC-2-ad |  | 1.03 | 0.799 | 1 | 1.08 | 1.16 | 1.01 | 1.01 | 0.917 |  | 0.26 | 0.18 | 0.311 | 0.718 | 0.774 | 0.511 | 0.391 | 0.4 | 0.853 | 0.167 |
| NCI-H23 | 0.998 | 1.14 | 0.762 | 1.11 | 0.23 | 0.22 | 0.211 | 0.2 | 0.213 | 0.82 | 0.902 | 0.839 | 0.993 | 0.799 | 0.837 | 0.694 | 0.727 | 0.611 | 1.05 | 0.805 |
| NCI-H647 | 1.04 | 1.14 | 1.04 | 1.1 | 0.235 | 0.144 | 0.267 | 0.136 | 0.23 | 0.869 | 1.13 | 1.12 | 0.763 | 0.506 | 0.253 | 0.175 | 0.169 | 0.152 | 0.933 | 1.44 |
| LXF-289 | 0.812 | 0.879 | 0.843 | 0.887 | 0.644 | 0.857 | 0.633 | 0.652 | 0.743 | 0.912 | 0.918 | 0.914 | 0.901 | 0.234 | 0.253 | 0.232 | 0.177 | 0.182 | 0.879 | 0.939 |
| PC-3 [JPC-3] | 0.453 | 0.46 | 0.435 | 0.447 | 0.712 | 0.701 | 0.711 | 0.622 | 0.485 | 0.702 | 0.735 | 0.761 | 0.732 | 0.988 | 0.943 | 0.88 | 0.83 | 0.879 | 0.441 | 0.821 |
| UMC-11 | 0.899 | 1.04 | 0.973 | 1.17 | 1.13 | 1.02 | 0.926 | 1.04 | 0.886 | 0.328 | 0.347 | 0.363 | 0.384 | 0.518 | 0.515 | 0.42 | 0.442 | 0.394 | 1.1 | 0.346 |
| H3255 | 0.254 | 0.227 | 0.29 | 0.211 | 0.791 | 0.782 | 0.811 | 0.644 | 0.829 | 0.503 | 0.623 | 0.531 | 0.355 | 0.356 | 0.326 | 0.344 | 0.255 | 0.366 | 0.291 | 0.571 |
| NCI-H2170 | 0.273 | 0.247 | 0.288 | 0.288 | 0.841 | 0.649 | 0.609 | 0.676 | 0.621 | 0.579 | 0.526 | 0.497 | 0.507 | 0.551 | 0.447 | 0.489 | 0.464 | 0.572 | 0.302 | 0.575 |
| NCI-H1651 | 0.877 | 0.81 | 0.749 | 0.865 | 0.981 | 1.12 | 0.855 | 0.579 | 0.652 | 1.14 | 1.38 | 1.21 | 1.46 | 0.386 | 0.492 | 0.387 | 0.251 | 0.365 | 0.822 | 1.27 |
| SK-MES-1 | 0.452 | 0.488 | 0.463 | 0.485 | 0.732 | 0.796 | 0.701 | 0.727 | 0.795 | 0.879 | 1.08 | 0.973 | 1.14 | 0.368 | 0.323 | 0.38 | 0.348 | 0.307 | 0.516 | 1.07 |
| NCI-H1355 | 0.884 | 0.955 | 0.982 | 1.06 | 0.672 | 0.809 | 0.761 | 0.647 | 0.563 | 0.936 | 1.02 | 0.719 | 0.903 | 0.682 | 0.791 | 0.687 | 0.621 | 0.614 | 0.946 | 0.955 |
| HOP-62 | 0.725 | 1.05 | 0.777 | 1.05 | 1.01 | 0.838 | 0.77 | 0.714 | 0.692 | 0.922 | 0.845 | 0.989 | 0.986 | 0.732 | 0.699 | 0.689 | 0.571 | 0.589 | 0.891 | 1.04 |
